Reference: patent publication US9074019B2, “Methods, systems, and compositions for calpain inhibition” (HENRY FORD HEALTH SYSTEMS, priority 2008, dated 2015)
Several values for one entry are separate records, joined by “and”; a condition that tells them apart may be missing. Equal values may be shown once. Entries after “also recorded” stand apart in the source; their conditions may differ. Square brackets hold non-standard residues; d marks the D form. Ends that are not written are not given here. βAla = NCCC(=O)O

Tests used:
[1] = system: focal cerebral ischemia (2 hour MCAO); test: Infarct volume after 2 hour middle cerebral artery occlusion (MCAO) in rats; format: in vivo, male Wistar rats; conditions: for infarct volume: 3 mg/kg i.v. 4 h, mean±SEM, no unit printed in this block, in %; for Lesion Volume % of Hemisphere (percent hemispheric infarct volume): 3 mg/kg i.v. infusion for 4 h after reperfusion, mean ± SE, n=9, 3 mg/kg
Description: (§1) We developed our peptidomimetic inhibitors of calpain by rational and systematic chemical modifications of the amide bond and/or side chain functionalities of permutations of SEQ ID NO: 2, followed by calpain-inhibitory kinetic measurements of the designed molecules in vitro as well as an assessment of their ability to improve neurological recovery in vivo after focal cerebral ischemic in rats. The structural modifications performed to create the peptidomimetics included, without limitation, amino acid replacements by chemical mutagenesis, amide bond mimics, methylene group insertion between the α-carbon and the carbonyl functionalities of individual amino acids, replacement of natural amino acid side chains with non-natural moieties, and amino acid side chain cyclizations. Calpain-inhibitory activity of the peptidomimetics was measured by steady-state and stopped-flow enzyme inhibition kinetic studies using purified calpain and natural protein or synthetic fluorogenic peptide substrates. The effect of the peptidomimetics on cerebral infarction, cerebral endothelial function and neurological functional recovery after ischemic stroke was assessed using a rat model of 2 hour middle cerebral artery (“MCAO”) ischemia.
(§2) Based on our studies, we selected and further tested SEQ ID NO: 5 for its cerebroprotective capacity after 2 hour middle cerebral artery (“MCAO”) ischemia in the Two hour MCAO by the suture method was induced in 21 male Wistar rats. […] Animals survived 7 days and neurological testing (score 0-3, 3 being the most severe) was performed. After sacrifice the brain samples were formalin fixed and infarct volumes were calculated using standard computerized image analysis. Independent t-test was used for statistical analysis.
(§3) Following an institutionally approved animal care protocol, male Wistar rats (270-290 g) were obtained from Charles River Breeding Co. (Wilmington, Mass., USA). Two-hour middle cerebral artery occlusion (MCAO) by the intravascular suture method, drug infusion, measurement of infarct volume and neurological deficits were performed as detailed previously.
(§4) SEQ ID NO: 5 (50 μM solution, i.v. infusion at 15 μl/min for 4 h; 3 mg/kg), SEQ ID NO: 13 or vehicle (1% DMSO in saline) was administered to rats […] (n=6-9) immediately after reperfusion following 2 h of MCAO. Sham-operated animals had surgery but no MCA occlusion. Animals to be studied for neurological score and infarct volume survived 7 days.
From the H&E sections, the ischemic core area with diffuse pallor of the eosinophilic background and the border area with vacuolation or sponginess and neutrophils can be identified under the microscope. […] The subcortical region in the core slices of C and D is also affected (white arrows). The ischemic damage (i.e. cell death, loss of tissue, or encephalomalacia) is less in the SEQ ID NO: 5-treated animals compared to the vehicle-treated controls. By comparison, the contralateral side appeared undamaged by both gross inspection and in histological sections.

[2] = system: endothelial nitric oxide synthase (eNOS); test: eNOS phosphorylation in brain after MCAO (Western blotting); format: in vivo, male Wistar rats
Experimental: (§5) Two-hour middle cerebral artery occlusion (MCAO) was used to induce ischemic stroke in Male Wistar rats. SEQ ID NO: 5 was given intravenously to rats immediately after reperfusion following 2 h of MCAO, while control animals had infusion of vehicle solution (n=6-9). Animals to be studied for neurological score and infarct volume survived 7 days, and neurological testing (mNSS and corner turn) were performed at 1, 4, and 7 days after MCAO. In another set of experiments, the animals were sacrificed at 48 h, and histology was performed for BBB integrity (albumin and fibrin leakage from the cerebral microvasculature into brain parenchyma). Phosphorylation of endothelial nitric oxide synthase (eNOS) was analyzed by Western blotting with specific antibodies raised against synthetic phosphorylated peptides representing known eNOS phosphorylation sites.
C: Graphical representation of the ratio of upper:lower phospho-eNOS protein band intensities (n=6 rats/experimental group).

BBB integrity = BBB integrity (albumin and fibrin leakage into brain parenchyma) after MCAO; format: in vivo, male Wistar rats
Experimental: as §5, with “sites. […] Shown are representative immunoblots of RSA levels in the ipsilateral cortical (A) and subcortical (B) regions of sham-operated, ischemic vehicle-treated, and ischemic. C, Densitometric analysis of RSA levels in ipsilateral cortex and subcortex (*p<0.05 vs vehicle; n=6) at 24 h following MCAO. […] Representative fluorescent micrographs of fibrin deposition outside the cerebral microvasculature of untreated (MCAO, panel A) and treated (+SEQ ID NO: 5, panel B) rats subjected to 2 hour MCA occlusion with reperfusion and 48 hour survival are shown. A schematic representation of a coronal brain section showing eight fields selected from the ischemic boundary zone (IBZ) for quantitative measurements of immunochemical staining for fibrin in the cortex and striatum is shown (panel C).” for “sites.”

[3] = system: focal cerebral ischemia (2 hour MCAO); test: Neurological score after 2 hour MCAO in rats; format: in vivo, male Wistar rats; conditions: for Neurological Score 0 Day: score 0-3 (3 most severe), day 0; for Neurological Score 1 Day: day 1
Experimental: as §2, §3, §4
Neurological scores have been previously defined as follows: no observable deficit=0, forelimb flexion=1, decreased resistance to lateral push with forelimb flexion=2, same behavior as 2 plus circling=3. […] However, the difference in performance between the SEQ ID NO: 5-treated animals and the vehicle controls (1.00±0.17 vs. 1.78±0.22, *P<0.05, n=9 per group; independent t-test) and the SEQ ID NO: 13-treated group (1.00±0.17 vs. 1.44±0.18, #P<0.05, n=9 per group; independent t-test) was statistically significant at day 7 post-injury.
We assessed functional outcome as an endpoint of our evaluation by the method of Bederson et al. Treatment with SEQ ID NO: 5 immediately after 2-h MCAO reduced neurological deficits by 24% and 44% on day 4 and day 7, respectively, compared to vehicle-treated stroke controls. Infarct volume was a secondary outcome and was measured at day 7 after stroke. The extent of cerebral infarction was reduced by 35% in the SEQ ID NO: 5-treated animals compared to vehicle-treated animals Due to the predictable location of areas of infarction and consistent production of neurological deficits in the MCAO model used in this study, the effects of SEQ ID NO: 5 on neurological outcome and size of infarction produced by focal cerebral ischemia could be reliably studied. It must be noted, however, that, infarction volumes could correlate poorly with functional outcome because small lesions in cortical locations can produce major functional deficits. Conversely, large lesions in relatively silent areas cause little detectable function loss. Reduction of neurological deficits after stroke has been attributed to synaptic and functional reorganization in the cerebral cortex and in subcortical structures after ischemic injuries.
as §5

[4] = system: calpain-mediated cleavage of αII-spectrin; test: Western blot of αII-spectrin breakdown products (SBDPs) in rat brain following MCAO; format: in vivo, male Wistar rats
Experimental: Following MCAO and drug infusion, the animals were sacrificed after 24 or 48 h of survival. At that time, the brains were extracted and separated into right and left, cortical and subcortical regions, snap-frozen in liquid nitrogen and stored at −80° C. until used. For Western blot analysis, the brain samples were pulverized to a fine powder with a small mortar and pestle set over dry ice. The pulverized brain tissue powder was homogenized in a solution of 0.25 M sucrose, […] 2-(N-morpholino)-ethanesulfonic acid, 1 mM EDTA, pH 6.5, containing 0.025 mM E-64, 2.0 mM AEBSF, 0.5 mM PMSF, 0.02 mM leupeptin, 0.05 mM pepstatin, and 0.001 mM aprotinin (homogenization buffer) at 4° C. in a Potter-Elvehjem homogenizer. T homogenates were then centrifuged at 4° C. for 20 min at 16,000 g. Aliquots of the supernatant were stored at −80° C. until used for experiments. Protein concentrations were determined using micro BCA Protein Assay kit (Pierce, Rockford, Ill.). SDS-PAGE was carried out according to Laemmli and immunoblots were performed according to the technique of Towbin et al. Mouse monoclonal ant II-spectrin antibody (MAB 1622, 1:1,000) and horse radish peroxidase (HRP)-conjugated goat anti-mouse IgG (AP124P, 1:10,000) were from Chemicon (Temecula, Calif.). Labeled proteins were detected with the enhanced chemiluminescence method according to the manufacturer's instructions (GE Healthcare Biosciences, Piscataway, N.J., USA). Bands were quantified by densitometry using Gel-Doc 2000 (Bio-Rad, Richmond, Va.) and the free open source software ImageJ.
Pathologic activity of calpain and in vivo efficacy of SEQ ID NO: 5 were assessed by Western blot analysis of all-spectrin breakdown products (SBDPs) generated in the rat brain following MCAO. […] (E) Densitometric analysis of SBDP150/SBDP145 levels in ipsilateral cortex and subcortex at 24 and 48 h following MCAO.

purified calpain = test: Calpain-inhibitory activity (steady-state and stopped-flow enzyme inhibition kinetics); format: biochemical; conditions: in words
Description: as §1, §4

[5] = rat 2-h MCAO, 3 mg/kg i.v. 4 h, mean ± SE, n=9
[6] = rat 2-h MCAO, 3 mg/kg i.v. 4 h, score 0-3, mean ± SE, n=9
[7] = rat 2-h MCAO, 3 mg/kg i.v. 4 h, score 0-3, mean ± SE, n=9, day 4

Substance: DPMSSTYIEELGKREVTIPPKYVALLPAVLLALLAP [SEQ ID NO: 5]
- ischemic damage (cell death, loss of tissue, encephalomalacia) in H&E sections ([1]; FIG. 3, compared to vehicle-treated controls): less
- infarct volume ([1]; rat 2-h MCAO, day 7): 24.9±3.8
- Lesion Volume % of Hemisphere (percent hemispheric infarct volume) ([1]; rat 2-h MCAO, day 7): 24.9±3.8 % of Hemisphere and 24.9 ± 3.8*^,# % of Hemisphere
- reduction of infarct volume (extent of cerebral infarction) compared to vehicle-treated animals ([1]; rat 2-h MCAO, day 7): 35%
- eNOS phosphorylation state (eNOS-Ser633, ratio of upper:lower band) ([2]; FIG. 7, n=6 rats/group): modulates eNOS phosphorylation state
- eNOS threonine-495 phosphorylation in the brain after stroke ([2]; post-injury treatment, FIG. 8): significantly reduced; also recorded: induces eNOS-Thr495 dephosphorylation
- BBB integrity as assessed by albumin and fibrin extravasation (BBB integrity; 48 h, compared to controls): significant improvement
- rat serum albumin (RSA) leakage into the ischemic brain parenchyma (BBB integrity; FIG. 5, ipsilateral cortex and subcortex, 24 h following MCAO, p<0.05 vs vehicle, n=6): reduces rat serum albumin (RSA) leakage
- fibrin deposition outside the cerebral microvasculature (BBB integrity; FIG. 6, 2 hour MCA occlusion with reperfusion and 48 hour survival): decreases fibrin deposition outside the cerebral microvasculature
- improving neurological recovery ([3]; 50 micromolar solution via femoral vein for 4 hours after reperfusion, total dose 3 mg/kg): effective
- Neurological Score 0 Day [3, 5]: 2.89 ± 0.11
- Neurological Score 1 Day [3, 6]: 2.33 ± 0.24
- Neurological Score 4 Days [3, 7]: 1.44 ± 0.18
- reduction of neurological deficits compared to vehicle-treated stroke controls, day 4 ([3]; rat 2-h MCAO, treatment immediately after MCAO, day 4): 24%
- reduction of neurological deficits compared to vehicle-treated stroke controls, day 7 ([3]; rat 2-h MCAO, treatment immediately after MCAO, day 7): 44%
- toxicity to cultured cells (cultured cells): non-toxic to cultured cells
- calpain-mediated cleavage of αII-spectrin in rat brain following MCAO ([4]; FIG. 4, 24 h and 48 h): blocks calpain-mediated cleavage of αII-spectrin
- SBDP145 levels at 48 h post-injury ([4]; cortical and subcortical regions, 48 h after MCAO, P<0.05 vs. vehicle, n=6): significantly reduced SBDP145 levels
- SBDP150 and SBDP145 formation at 24 h post-injury ([4]; ipsilateral cortex and subcortex, 24 h after MCAO): blocked SBDP150 and SBDP145 formation to basal levels; also recorded: completely blocked SBDP145 accumulation
- calpain inhibitory activity (purified calpain): potent
- specificity for calpain (purified calpain): specific inhibitor of calpain

Substance: DPMSSTYIEE[βAla]GKREVTIPPKYVALLPAVLLALLAP [SEQ ID NO: 13, reference compound]
- infarct volume ([1]; rat 2-h MCAO, day 7): 33.8±4.2
- Lesion Volume % of Hemisphere (percent hemispheric infarct volume) ([1]; rat 2-h MCAO, day 7): 33.8±4.2 % of Hemisphere
- Neurological Score 0 Day [3, 5]: 2.89 ± 0.11
- Neurological Score 1 Day [3, 6]: 2.11 ± 0.20
- Neurological Score 4 Days [3, 7]: 1.56 ± 0.18
- Neurological Score 7 Days ([3]; rat 2-h MCAO, 3 mg/kg i.v. 4 h, score 0-3, mean ± SE, n=9, day 7, 3 mg/kg): 1.44±0.18
- calpain inhibitory activity (purified calpain): less active
- calpain inhibitory activity (purified calpain; listed as SEQ ID NO: 5-βAla): inactive
